Active and inactive are the calls of the source. The calls are words filed in the database; no cut-off is given here.
System: Human immunodeficiency virus 1
Assay: Antiviral activity against HIV1 infected in human H9 cells assessed as inhibition of virus-induced cytopathic effect by tetrazolium-based method
Format: functional, organism-based

`CC(=O)NC(CCCC#CCC(Cl)Cl)CCCC#CCC(Cl)(Cl)Cl` (configuration not stated) was tested, and the Activity was “inactive”.

With `CC(=O)NC(CCCC#CCC(Cl)(Cl)Cl)CCCC#CCC(Cl)(Cl)Cl` the Activity was “inactive”.
